Results published in ChEMBL document CHEMBL4130375, “Design, synthesis and biological evaluation of 4-amidobenzimidazole acridine derivatives as dual PARP and Topo inhibitors for cancer therapy” (Eur J Med Chem, 2017).
pIC50: −log10 of the molar value. Calls of active or inactive are those of the source. The calls are words filed in the database; no cut-off is given here.

Tests used:
[1] = biological target: Poly [ADP-ribose] polymerase 1 (Homo sapiens, UniProt P09874); test: Inhibition of PARP1 (unknown origin) assessed as reduction in biotinylated poly(ADP-ribose) incorporation on to histone protein by ELISA based colorimetric assay
[2] = system: MCF7; test: cells; details: Homo sapiens, MCF7, 72 h
[3] = biological target: DNA topoisomerase 2-alpha (Homo sapiens) (UniProt P11388); test: Inhibition of human topoisomerase-2 at 100 uM using supercoiled pBR322 DNA as substrate after 10 to 15 mins by ethidium bromide staining based electrophoresis method
[4] = system: HCC1937; test: Antiproliferative activity against human HCC1937 cells harboring BRCA1 mutant after 72 hrs by MTT assay; type: functional, cell-based; details: HCC1937, 72 h
[5] = system: HCT-116; test: Antiproliferative activity against human HCT116 cells expressing topoisomerase-1 after 72 hrs by MTT assay; type: functional, cell-based; details: HCT-116, 72 h

Poly [ADP-ribose] polymerase 1, sequence (P09874 whole entry): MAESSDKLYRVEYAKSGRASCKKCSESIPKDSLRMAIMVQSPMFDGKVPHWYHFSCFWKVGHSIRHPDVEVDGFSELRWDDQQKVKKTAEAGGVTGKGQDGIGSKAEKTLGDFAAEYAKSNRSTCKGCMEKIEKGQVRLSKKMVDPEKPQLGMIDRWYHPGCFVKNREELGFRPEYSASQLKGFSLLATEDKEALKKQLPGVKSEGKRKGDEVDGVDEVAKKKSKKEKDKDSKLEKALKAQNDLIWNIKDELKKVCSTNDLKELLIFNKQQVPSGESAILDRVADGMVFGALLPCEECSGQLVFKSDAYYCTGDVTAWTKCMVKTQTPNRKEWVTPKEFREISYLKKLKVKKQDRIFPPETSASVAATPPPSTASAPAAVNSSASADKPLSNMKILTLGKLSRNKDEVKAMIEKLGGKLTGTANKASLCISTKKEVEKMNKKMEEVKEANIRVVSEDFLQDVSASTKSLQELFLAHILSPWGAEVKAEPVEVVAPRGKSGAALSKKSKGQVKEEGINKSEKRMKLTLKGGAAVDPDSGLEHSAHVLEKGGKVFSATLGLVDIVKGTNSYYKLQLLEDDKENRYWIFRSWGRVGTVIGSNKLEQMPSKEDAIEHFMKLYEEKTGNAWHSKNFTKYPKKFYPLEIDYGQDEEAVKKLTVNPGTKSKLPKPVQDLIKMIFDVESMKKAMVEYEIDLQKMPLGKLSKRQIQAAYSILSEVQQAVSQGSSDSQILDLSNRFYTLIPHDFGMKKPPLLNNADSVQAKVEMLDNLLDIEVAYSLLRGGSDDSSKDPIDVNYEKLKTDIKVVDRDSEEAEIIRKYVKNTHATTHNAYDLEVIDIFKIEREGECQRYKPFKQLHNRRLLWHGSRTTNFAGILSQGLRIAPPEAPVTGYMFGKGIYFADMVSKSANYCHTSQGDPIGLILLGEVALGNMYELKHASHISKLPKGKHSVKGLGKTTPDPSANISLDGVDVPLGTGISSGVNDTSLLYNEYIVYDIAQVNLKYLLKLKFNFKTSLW
DNA topoisomerase 2-alpha (Homo sapiens), sequence (P11388 whole entry): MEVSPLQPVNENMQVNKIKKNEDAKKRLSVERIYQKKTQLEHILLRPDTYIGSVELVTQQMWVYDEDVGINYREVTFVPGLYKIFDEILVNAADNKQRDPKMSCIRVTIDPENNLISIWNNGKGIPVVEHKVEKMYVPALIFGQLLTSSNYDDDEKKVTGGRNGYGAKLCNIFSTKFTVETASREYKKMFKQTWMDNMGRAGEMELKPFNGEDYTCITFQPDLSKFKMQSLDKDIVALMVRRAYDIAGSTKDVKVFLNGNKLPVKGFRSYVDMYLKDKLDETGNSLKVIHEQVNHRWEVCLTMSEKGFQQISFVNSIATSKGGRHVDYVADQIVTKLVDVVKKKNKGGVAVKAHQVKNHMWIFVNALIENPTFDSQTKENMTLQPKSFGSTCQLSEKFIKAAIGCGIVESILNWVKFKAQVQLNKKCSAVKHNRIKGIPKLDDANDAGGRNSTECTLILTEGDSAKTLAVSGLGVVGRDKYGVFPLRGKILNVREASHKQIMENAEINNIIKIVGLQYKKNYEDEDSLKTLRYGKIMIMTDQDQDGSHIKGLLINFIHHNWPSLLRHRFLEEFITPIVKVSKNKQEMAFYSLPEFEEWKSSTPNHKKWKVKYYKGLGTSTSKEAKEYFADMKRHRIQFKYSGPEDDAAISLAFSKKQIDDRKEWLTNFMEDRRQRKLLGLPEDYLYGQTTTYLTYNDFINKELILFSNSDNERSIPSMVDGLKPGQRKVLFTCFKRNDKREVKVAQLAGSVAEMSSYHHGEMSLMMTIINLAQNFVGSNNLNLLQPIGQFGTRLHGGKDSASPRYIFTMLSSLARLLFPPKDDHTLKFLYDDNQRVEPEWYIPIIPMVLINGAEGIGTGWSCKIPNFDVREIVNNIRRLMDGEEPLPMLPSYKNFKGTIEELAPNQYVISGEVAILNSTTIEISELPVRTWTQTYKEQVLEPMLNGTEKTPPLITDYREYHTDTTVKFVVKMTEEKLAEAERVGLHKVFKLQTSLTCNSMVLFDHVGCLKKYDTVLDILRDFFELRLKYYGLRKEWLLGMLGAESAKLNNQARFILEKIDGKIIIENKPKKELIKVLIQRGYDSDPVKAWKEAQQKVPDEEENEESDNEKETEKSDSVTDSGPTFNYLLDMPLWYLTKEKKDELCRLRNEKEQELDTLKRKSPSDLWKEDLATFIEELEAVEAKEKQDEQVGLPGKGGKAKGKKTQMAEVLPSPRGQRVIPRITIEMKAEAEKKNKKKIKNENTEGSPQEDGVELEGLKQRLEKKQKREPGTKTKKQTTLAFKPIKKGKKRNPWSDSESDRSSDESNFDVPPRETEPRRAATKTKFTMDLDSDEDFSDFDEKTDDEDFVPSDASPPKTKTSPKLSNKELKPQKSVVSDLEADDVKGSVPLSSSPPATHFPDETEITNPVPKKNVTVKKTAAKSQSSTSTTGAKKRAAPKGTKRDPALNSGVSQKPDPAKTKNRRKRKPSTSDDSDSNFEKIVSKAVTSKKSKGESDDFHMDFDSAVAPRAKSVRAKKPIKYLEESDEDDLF

SMILES	pIC50 [1]	pIC50 [2]	inhibition [3]	pIC50 [4]	pIC50 [5]
NC(=O)c1cccc2[nH]c(-c3cccc(Nc4c5ccccc5nc5ccccc45)c3)nc12	5.86	4.44			
CCCCc1ccc2nc3ccccc3c(Nc3cccc(-c4nc5c(C(N)=O)cccc5[nH]4)c3)c2c1	6.49	< 4.30	Active		
COc1cccc2c(Nc3cccc(-c4nc5c(C(N)=O)cccc5[nH]4)c3)c3ccccc3nc12	6.01	4.59	Active		
COc1ccc2nc3ccccc3c(Nc3ccc(-c4nc5c(C(N)=O)cccc5[nH]4)cc3)c2c1	6.60	4.42	Active		
CCCCc1ccc2nc3ccccc3c(Nc3ccc(-c4nc5c(C(N)=O)cccc5[nH]4)cc3)c2c1	6.89	< 4.30	Active		
NC(=O)c1cccc2[nH]c(-c3ccccc3N)nc12	< 4.30	< 4.30			
NC(=O)c1cccc2[nH]c(-c3cccc(N)c3)nc12	7.52	< 4.30			
Cc1ccc2nc3ccccc3c(Nc3ccc(-c4nc5c(C(N)=O)cccc5[nH]4)cc3)c2c1	7.00	4.41	Active		
NC(=O)c1cccc2nc(-c3ccc(N)cc3)[nH]c12	7.52	< 4.30			
O=C(c1cc(Cc2n[nH]c(=O)c3ccccc23)ccc1F)N1CCN(C(=O)C2CC2)CC1 [OLAPARIB]		4.44		5.30	4.82

Second part, the compound after the results:

pIC50 [1]	pIC50 [2]	inhibition [3]	pIC50 [4]	pIC50 [5]	SMILES
7.05	4.92	Active			NC(=O)c1cccc2[nH]c(-c3ccc(Nc4c5ccccc5nc5ccccc45)cc3)nc12
5.77	4.66	Active			COc1ccc2nc3ccccc3c(Nc3ccccc3-c3nc4c(C(N)=O)cccc4[nH]3)c2c1
5.94	4.34	Active			COc1ccc2nc3ccccc3c(Nc3cccc(-c4nc5c(C(N)=O)cccc5[nH]4)c3)c2c1
5.70	< 4.30	Active			NC(=O)c1cccc2[nH]c(-c3ccccc3Nc3c4ccccc4nc4ccccc34)nc12
6.72	4.88	Active			COc1cccc2c(Nc3ccc(-c4nc5c(C(N)=O)cccc5[nH]4)cc3)c3ccccc3nc12
6.29	4.53	Active			Cc1ccc2nc3ccccc3c(Nc3cccc(-c4nc5c(C(N)=O)cccc5[nH]4)c3)c2c1
	5.06		5.11	5.41	COc1cc(NS(C)(=O)=O)ccc1Nc1c2ccccc2nc2ccccc12 [AMSACRINE]
6.85	4.41	Active			Cc1cccc2c(Nc3ccc(-c4nc5c(C(N)=O)cccc5[nH]4)cc3)c3ccccc3nc12
	4.58				c1ccc2[nH]c(-c3ccc(Nc4c5ccccc5nc5ccccc45)cc3)nc2c1
